Reference: patent US20260232561A1, “PEPTIDE ACTIVATING RETINOIC ACID RECEPTOR, AND COSMETIC COMPOSITION CONTAINING SAME” (SUPADELIXIR INC., priority 2023, published 2026)

How the values were obtained:
[1] = tested on: P53 and POLII (RNA Polymerase II); experiment: in-situ proximity ligation assay (PLA) of physical binding between P53 and POLII in HaCaT cells; format: cell-based, human; details: peptide 1 and 10 μM, 30 minutes, compared to untreated control group (FIG. 2)
Protocol: • 1. To confirm whether the peptides of Example 1 increase the transcriptional activity of P53, which was related to cell anti-aging, cells were treated with the peptides of Example 1, and then the effects of the peptides on the physical binding between P53 and POLII (RNA Polymerase II) was evaluated using an in-situ proximity ligation assay (PLA) method. • 2. Specifically, 4.5×10^4 HaCaT cells (human keratinocytes) were seeded into each well of a 24-well microplate with DMEM serum medium. The cells were cultured in an incubator at a temperature of 37° C. and with 5% CO2 for 24 hours. Next, the cells were treated with each of the peptides of Example 1, and the cells were incubated under the same conditions for 30 minutes. The concentration of each peptide in the medium was set to 1 and 10 μM. The control group received no treatment. Afterward, the cells in each well were washed with PBS and fixed by treatment with 2% formaldehyde for 15 minutes, and then the cells were treated with 0.1% TritonX-100 for 5 minutes to increase antibody permeability into the cells. […] Afterward, the physical interaction of P53 and POLII antibodies was quantified by measuring luminescence signals (PLA signals) detected in each cell using a fluorescence microscope (Logosbio/CelenaS, Korea), and the results are shown in FIG. 2. • 4. […]

[2] = tested on: human dermal fibroblasts; experiment: immunofluorescence analysis of intracellular collagen synthesis (anti-COL1A2); format: cell-based; details: peptide 1 and 10 μM, 24 hours, compared to untreated control group (FIG. 3)
Protocol: • 1. Immunofluorescence analysis was performed to evaluate the effects of the peptides of Example 1 on intracellular collagen synthesis. • 2. Specifically, 4.5×10^4 human dermal fibroblasts were seeded into each well of a 24-well microplate along with CEFOgro Human MSC Growth Medium). The cells were cultured in an incubator at a temperature of 37° C. and with 5% CO2 for 24 hours. Next, the cells were treated with each of the peptides of Example 1, and the cells were incubated under the same conditions for 24 hours. The concentration of each peptide in the medium was set to 1 and 10 μM. Out of two control groups, one received no treatment, and the other was treated with 1 μM retinol. The cells in each well were washed with PBS and fixed by treatment with 4% formaldehyde for 15 minutes, and then the cells were treated with 0.1% TritonX-100 for 5 minutes to increase antibody permeability into the cells. The cells were washed with PBS solution and treated with anti-COL1A2 polyclonal antibodies (Santa Cruz, CA, USA) for 1 hour. Next, the cells were treated with mouse anti-goat IgG-FITC for 40 minutes. To stain the cytoskeleton, the cells were treated with Phalloidin-Rhodamin for 40 minutes. After mounting with DAPI-added reagent for cell nucleus staining, the cells were observed using a fluorescence microscope (Logosbio/CelenaS, Korea) and quantified using a program (NIS-Eliments-3.1).

[3] = tested on: B16F10 cells (mouse melanocytes); experiment: inhibition of α-MSH-stimulated melanin synthesis in cells; format: cell-based; details: 72 hours; for increase in melanin induced by α-MSH stimulation: 100 nM α-MSH, peptide 1 and 10 μM; for Melanin amount (of Control): no treatment = 100
Protocol: • 1. […] Specifically, 1×10^5 B16F10 cells (mouse melanocytes) were seeded into each well of a 6-well microplate with DMEM serum medium. The cells were cultured in an incubator at a temperature of 37° C. and with 5% CO2 for 24 hours. […] The concentration of each peptide in the medium was set to 1 and 10 μM. […] Afterward, to measure the amount of extracellular melanin, the supernatant was taken, and the absorbance of free melanin in the medium was measured at a wavelength of 400 nm. To measure the amount of intracellular melanin, the cells were washed with PBS after removing the medium, and then the cells were lysed with 1 M NaOH at a temperature of 60° C. for 30 minutes, and the absorbance was measured at a wavelength of 400 nm. The amount of free melanin and intracellular melanin measured by absorbance were quantified, and the results are shown in Table 2. • 3.

[4] = tested on: RAR and RXR; experiment: in-situ proximity ligation assay (PLA) of physical binding between RAR and RXR in HaCaT cells; format: cell-based, human; details: peptide 1 and 10 μM, 30 minutes, compared to untreated control group (FIG. 1)
Protocol: • 1. Retinol regulates the transcription of target DNA by inducing the binding between Retinoic acid receptor (RAR) and Retinoid X Receptor (RXR). To confirm whether the peptides of Example 1 activate the binding between RXR/RAR, the effects of the peptides on the physical binding between RAR and RXR were evaluated using an in-situ proximity ligation assay (PLA) method. • 2. Specifically, 4.5×10^4 HaCaT cells (human keratinocytes) were seeded into each well of a 24-well microplate with DMEM serum medium. The cells were cultured in an incubator at a temperature of 37° C. and with 5% CO2 for 24 hours. Next, the cells were treated with each of the peptides of Example 1, and the cells were incubated under the same conditions for 30 minutes. The concentration of each peptide in the medium was set to 1 and 10 μM. The control group received no treatment. Afterward, the cells in each well were washed with PBS and fixed by treatment with 2% formaldehyde for 15 minutes, and then the cells were treated with 0.1% TritonX-100 for 5 minutes to increase antibody permeability into the cells. […] Afterward, the physical interaction of RAR and RXR antibodies was quantified by measuring luminescence signals (PLA signals) detected in each cell using a fluorescence microscope (Logosbio/CelenaS, Korea), and the results are shown in FIG. 1. • 4. […]

[5] = α-MSH (100 nM) + test substance 1 uM
[6] = α-MSH (100 nM) + test substance 10 uM

| Molecule | physical binding between P53 and POLII (PLA signals) [1] | collagen synthesis [2] | increase in melanin induced by α-MSH stimulation [3] | Melanin amount (of Control) [3, 5] [%] | Melanin amount (of Control) [3, 6] [%] | physical binding between RAR and RXR (PLA signals) [4] |
| --- | --- | --- | --- | --- | --- | --- |
| Thr-Val-Glu-Phe (TVEF) [Raragin B] | increased | significantly increased | reduced | 109 | 106 | increased |
| Ile-Gln-Glu-Met (IQEM) [Raragin A] | increased | significantly increased | reduced | 111 | 107 | increased |
| CC1=C(/C=C/C(C)=C/C=C/C(C)=C/CO)C(C)(C)CCC1 [Retinol, retinol, reference compound] | – | – | – | 114 | – | – |
